Experimental data from patent publication US12723063B2, “GIPR-agonist compounds” (Eli Lilly and Company, priority 2019, dated 2026).

Tests used:
human GIPR = target: T1, human GIPR (Homo sapiens, UniProt P48546); assay: [125I]-GIP binding, SPA with WGA beads, 0.1% bacitracin; conditions: geometric mean, read-out: hGIPR Ki
T1 construct: expressed in transfected cells; crude membranes
T1 sequence (P48546 22-466): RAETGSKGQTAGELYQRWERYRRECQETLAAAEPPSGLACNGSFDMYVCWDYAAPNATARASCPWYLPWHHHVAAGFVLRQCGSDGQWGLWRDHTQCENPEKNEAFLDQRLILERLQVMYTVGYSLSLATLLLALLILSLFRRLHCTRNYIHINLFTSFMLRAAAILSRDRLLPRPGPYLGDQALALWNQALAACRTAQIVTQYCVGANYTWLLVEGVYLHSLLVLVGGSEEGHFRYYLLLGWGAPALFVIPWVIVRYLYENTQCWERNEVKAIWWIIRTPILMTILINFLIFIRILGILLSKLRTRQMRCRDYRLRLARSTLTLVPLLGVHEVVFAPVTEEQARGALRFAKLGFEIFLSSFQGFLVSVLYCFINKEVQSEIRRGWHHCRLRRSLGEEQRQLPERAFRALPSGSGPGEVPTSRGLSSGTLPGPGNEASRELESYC
Description: Stably transfected cell lines are prepared by subcloning receptor cDNA into a pcDNA3 expression plasmid and transfected into human embryonic kidney (HEK) 293 (hGcgR and hGLP-1R) or Chinese Hamster Ovary (CHO) (hGIPR) cells followed by selection with Geneticin (hGLP-1R and hGIPR) or hygromycin B (hGcgR).
Two methods are used for the preparation of crude cell membranes.
Method 1: Frozen cell pellets are lysed on ice in hypotonic buffer containing 50 mM Tris HCl, pH 7.5, and Roche Complete™ Protease Inhibitors with EDTA. The cell suspension is disrupted using a glass Potter-Elvehjem homogenizer fitted with a Teflon® pestle for 25 strokes. The homogenate is centrifuged at 4° C. at 1100× g for 10 minutes. The supernatant is collected and stored on ice while the pellets are resuspended in homogenization buffer and rehomogenized as described above. The homogenate is centrifuged at 1100× g for 10 minutes. The second supernatant is combined with the first supernatant and centrifuged at 35000× g for 1 hour at 4° C. The resulting membrane pellet is resuspended in homogenization buffer containing protease inhibitors at approximately 1 to 3 mg/mL, quick frozen in liquid nitrogen and stored as aliquots in a −80° C. freezer until use.
Method 2: Frozen cell pellets are lysed on ice in hypotonic buffer containing 50 mM Tris HCl, pH 7.5, 1 mM MgCl2, Roche Complete™ EDTA-free Protease Inhibitors and 25 units/mL DNAse I (Invitrogen). The cell suspension is disrupted using a glass Potter-Elvehjem homogenizer fitted with a Teflon® pestle for 20 to 25 strokes. The homogenate is centrifuged at 4° C. at 1800× g for 15 minutes. The supernatant is collected and stored on ice while the pellets are resuspended in homogenization buffer (without DNAse I) and rehomogenized as described above. The homogenate is centrifuged at 1800× g for 15 minutes. The second supernatant is combined with the first supernatant and centrifuged an additional time at 1800× g for 15 minutes. The overall supernatant is then centrifuged at 25000× g for 30 minutes at 4° C. The resulting membrane pellet is resuspended in homogenization buffer (without DNAse I) containing protease inhibitors at approximately 1 to 3 mg/mL and stored as aliquots in a −80° C. freezer until use.
The binding buffer contains 25 mM HEPES, pH 7.4, 2.5 mM CaCl2), 1 mM MgCl2, 0.1% (w/v) bacitracin, 0.003% (w/v) TWEEN®-20, and Roche Complete™ Protease Inhibitors without EDTA. […] Plates are sealed and mixed on a plate shaker (setting 6) for 1 minute and read with a PerkinElmer Trilux MicroBeta® scintillation counter after 2.5 to 12 hours of incubation/settling time at room temperature.
Data are analyzed using four-parameter (curve maximum, curve minimum, IC50, Hill slope) nonlinear regression routines (Genedata Screener, version 12.0.4, Genedata AG, Basal, Switzerland). […] Values for Ki are reported as the geometric mean, with error expressed as the standard error of the mean (SEM) and n is equal to the number of independent replicates (determined in assays performed on different days). […] SEM is only calculated when […] or greater. Means are expressed as geometric means with the standard error of the mean (SEM) and the number of replicates (n) indicated in parentheses.

[1] = target: T2, human GLP-1 receptor (GLP-1R) (Homo sapiens, UniProt P43220); assay: cAMP functional assay (HTRF) in HEK293 cells in presence of 0.1% casein; assay type: cell-based; conditions: HEK293 cells expressing human GLP-1R, geometric mean, read-out: hGLP1R cAMP Rel EC50 nM (SEM, n)
T2 construct: expressed in transfected cells; host or cells: HEK293
Description: Each receptor over-expressing cell line (20 μl) is treated with the test peptide in DMEM (Gibco Cat #31053) supplemented with 0.1% Casein (Sigma Cat #C4765), 250 μM IBMX, 1× GlutaMAX™ (Gibco Cat #35050), and 20 mM HEPES (HyClone Cat #SH30237.01) in a 20 μl assay volume. After incubating for 60 minutes at room temperature, the resulting increase in intracellular CAMP is quantitatively determined using the CisBio CAMP Dynamic 2 HTRF Assay Kit (62AM4PEJ). The Lysis buffer containing cAMP-d2 conjugate (20 μl) and the antibody anti-cAMP-Eu3+-Cryptate (20 μl) are then added to determine the cAMP level. After incubating 60 minutes at room temperature, HTRF signal is detected with an Envision 2104 plate reader (PerkinElmer). Fluorescent emission at 620 nm and at 665 nm is measured and the ratio between 620 nm and at 665 nm is calculated and then are converted to nM cAMP per well using a cAMP standard curve. Dose response curves of compounds are plotted as the percentage of stimulation normalized to minimum (buffer only) and maximum (maximum concentration of each control ligand) values and analyzed using a four parameter non-linear regression fit with a variable slope (Genedata Screener 13). EC50 is the concentration of compound causing half-maximal simulation in a dose response curve. A relative EC50 value is derived by non-linear regression analysis using the percent maximal response vs, the concentration of peptide added, fitted to a four-parameter logistic equation.
Intracellular cAMP levels are determined by extrapolation using a standard curve. Dose response curves of compounds are plotted as the percentage of stimulation normalized to minimum (buffer only) and maximum (maximum concentration of each control ligand) values and analyzed using a four-parameter non-linear regression fit with a variable slope (Genedata Screener 13). EC50 is the concentration of compound causing half-maximal simulation in a dose response curve. Each relative EC50 value for the geometric mean calculation is determined from a curve fitting.
Concentration response curves of compounds are plotted as the percentage of stimulation normalized to minimum (buffer only) and maximum (maximum concentration of each control ligand) values and analyzed using a four-parameter non-linear regression fit with a variable slope (Genedata Screener 13). EC50 is the concentration of compound causing half-maximal simulation in a dose response curve. […] The standard error of the mean is reported:
[formula] • The log transform accounts for the EC50 values falling on a multiplicative, rather than an arithmetic scale.
For illustration, as shown by Example 1, the peptide is tested in 8 runs of the hGIPR CAMP assay. […] Accordingly, each Example will use the geometric mean of those values to normalize the Example assay runs.

T2 sequence (P43220 24-463): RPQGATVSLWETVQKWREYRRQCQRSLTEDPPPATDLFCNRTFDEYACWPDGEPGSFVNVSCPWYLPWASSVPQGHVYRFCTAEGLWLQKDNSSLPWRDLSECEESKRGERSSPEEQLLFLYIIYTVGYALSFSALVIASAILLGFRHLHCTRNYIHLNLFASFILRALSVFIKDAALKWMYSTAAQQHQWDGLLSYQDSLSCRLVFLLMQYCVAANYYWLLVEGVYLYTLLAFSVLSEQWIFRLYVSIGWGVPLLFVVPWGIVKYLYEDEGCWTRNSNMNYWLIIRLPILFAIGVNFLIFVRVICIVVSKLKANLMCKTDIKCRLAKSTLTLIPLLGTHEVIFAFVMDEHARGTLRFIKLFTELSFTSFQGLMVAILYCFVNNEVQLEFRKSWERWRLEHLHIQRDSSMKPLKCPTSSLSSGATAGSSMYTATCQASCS

Row | Compound | Ki (human GIPR) | EC50 [1]
1 | CC[C@H](C)[C@H](NC(=O)[C@H](CCCCN)NC(=O)[C@H](CC(=O)O)NC(=O)[C@H](CC(C)C)NC(=O)[C@](C)(CC(C)C)NC(=O)[C@@H](NC(=O)[C@H](CO)NC(=O)[C@H](Cc1ccc(O)cc1)NC(=O)[C@H](CC(=O)O)NC(=O)[C@H](CO)NC(=O)[C@@H](NC(=O)[C@H](Cc1ccccc1)NC(=O)[C@@H](NC(=O)CNC(=O)[C@H](CCC(=O)O)NC(=O)C(C)(C)NC(=O)[C@@H](N)Cc1ccc(O)cc1)[C@@H](C)O)[C@@H](C)CC)[C@@H](C)CC)C(=O)N[C@@H](Cc1c[nH]cn1)C(=O)N[C@@H](CCC(N)=O)C(=O)NC(C)(C)C(=O)N[C@@H](CC(=O)O)C(=O)N[C@@H](Cc1ccccc1)C(=O)N[C@H](C(=O)N[C@@H](CCC(=O)O)C(=O)N[C@@H](Cc1ccc(O)cc1)C(=O)N[C@@H](CCCCNC(=O)COCCOCCNC(=O)COCCOCCNC(=O)CC[C@H](NC(=O)CCCCCCCCCCCCCCCCCCC(=O)O)C(=O)O)C(=O)N[C@@H](CC(C)C)C(=O)N[C@@H](CCC(=O)O)C(=O)NCC(=O)NCC(=O)N1CCC[C@H]1C(=O)N[C@@H](CO)C(=O)N[C@@H](CO)C(=O)NCC(=O)N[C@@H](C)C(=O)N1CCC[C@H]1C(=O)N1CCC[C@H]1C(=O)N1CCC[C@H]1C(=O)N[C@@H](CO)C(N)=O)C(C)C [Example 5] | 0.0771 nM | > 5000 nM
2 | CC[C@H](C)[C@H](NC(=O)[C@H](CCCN)NC(=O)[C@H](CC(=O)O)NC(=O)[C@H](CC(C)C)NC(=O)[C@](C)(CC(C)C)NC(=O)[C@@H](NC(=O)[C@H](CO)NC(=O)[C@H](Cc1ccc(O)cc1)NC(=O)[C@H](CC(=O)O)NC(=O)[C@H](CO)NC(=O)[C@@H](NC(=O)[C@H](Cc1ccccc1)NC(=O)[C@@H](NC(=O)CNC(=O)[C@H](CCC(=O)O)NC(=O)C(C)(C)NC(=O)[C@@H](N)Cc1ccc(O)cc1)[C@@H](C)O)[C@@H](C)CC)[C@@H](C)CC)C(=O)N[C@@H](Cc1c[nH]cn1)C(=O)N[C@@H](CCC(N)=O)C(=O)NC(C)(C)C(=O)N[C@@H](CC(=O)O)C(=O)N[C@@H](Cc1ccccc1)C(=O)N[C@H](C(=O)N[C@@H](CCC(=O)O)C(=O)N[C@@H](Cc1ccc(O)cc1)C(=O)N[C@@H](CCCCNC(=O)COCCOCCNC(=O)COCCOCCNC(=O)CC[C@H](NC(=O)CCCCCCCCCCCCCCCCCCC(=O)O)C(=O)O)C(=O)N[C@@H](CC(C)C)C(=O)N[C@@H](CCC(=O)O)C(=O)NCC(=O)NCC(=O)N1CCC[C@H]1C(=O)N[C@@H](CO)C(=O)N[C@@H](CO)C(=O)NCC(=O)N[C@@H](C)C(=O)N1CCC[C@H]1C(=O)N1CCC[C@H]1C(=O)N1CCC[C@H]1C(=O)N[C@@H](CO)C(N)=O)C(C)C [Example 6] | 0.104 nM | > 5000 nM
3 | CC[C@H](C)[C@H](NC(=O)[C@H](CCCN)NC(=O)[C@H](CC(=O)O)NC(=O)[C@H](CC(C)C)NC(=O)[C@](C)(CC(C)C)NC(=O)[C@@H](NC(=O)[C@H](CO)NC(=O)[C@H](Cc1ccc(O)cc1)NC(=O)[C@H](CC(=O)O)NC(=O)[C@H](CO)NC(=O)[C@@H](NC(=O)[C@H](Cc1ccccc1)NC(=O)[C@@H](NC(=O)CNC(=O)[C@H](CCC(=O)O)NC(=O)C(C)(C)NC(=O)[C@@H](N)Cc1ccc(O)cc1)[C@@H](C)O)[C@@H](C)CC)[C@@H](C)CC)C(=O)N[C@@H](Cc1c[nH]cn1)C(=O)N[C@@H](CCC(N)=O)C(=O)NC(C)(C)C(=O)N[C@@H](CCC(=O)O)C(=O)N[C@@H](Cc1ccccc1)C(=O)N[C@H](C(=O)N[C@H](CCC(=O)O)C(=O)N[C@@H](Cc1ccc(O)cc1)C(=O)N[C@@H](CCCCNC(=O)COCCOCCNC(=O)COCCOCCNC(=O)CC[C@H](NC(=O)CCCCCCCCCCCCCCCCC(=O)O)C(=O)O)C(=O)N[C@@H](CC(C)C)C(=O)N[C@@H](CCC(=O)O)C(=O)NCC(=O)NCC(=O)N1CCC[C@H]1C(=O)N[C@@H](CO)C(=O)N[C@@H](CO)C(=O)NCC(=O)N[C@@H](C)C(=O)N1CCC[C@H]1C(=O)N1CCC[C@H]1C(=O)N1CCC[C@H]1C(=O)N[C@@H](CO)C(N)=O)C(C)C [Example 7] | 0.193 nM | > 5000 nM
